From patent US9137992B2, “Spinosyn-producing polyketide synthases” (DOW AGROSCIENCES LLC, priority 2002, dated 2015)

Experiments:
insect = assay: Insect control assays; details: in vivo
[1] = system: beet armyworm (Spodoptera exigua) larvae; assay: Topical assay on beet armyworm larvae; format: in vivo; details: acetone solution, 1 microg/larva, six larvae, mortality at end of two-day period, 21° C., 60% RH
Protocol: (§1) Biological activity of the compounds of the invention was shown by a topical assay in which the compound was applied to laboratory-reared larvae (mean weight 22 mg) at the rate of 1 microg/larva. Each compound was applied, in an acetone solution (1 mg/mL), along the dorsum of six tobacco budworm (Heliothis virescens) larvae and six beet armyworm (Spodoptera exigua) larvae. Treated larvae were then held for two days at 21° C., 60% RH in six-well plastic culture plates. Larvae were each supplied with a 1 cm^3 of agar-based Lepidoptera diet for sustenance during the two-day post-exposure interval. Percent mortality was determined at the end of a two-day period (Table 18).

[2] = system: tobacco budworm (Heliothis virescens) larvae; assay: Topical assay on tobacco budworm larvae; format: in vivo; details: acetone solution, 1 microg/larva, six larvae, mortality at end of two-day period, 21° C., 60% RH
Protocol: as §1

SMILES	activity in insect control assays (insect)	Beet Armyworm Mortality (%) [1]	Tobacco Budworm Mortality (%) [2]
CCC[C@H]1CCC[C@H](O[C@H]2CC[C@H](N(C)C)[C@@H](C)O2)[C@@H](C)C(=O)C2=C[C@@H]3[C@@H](C=C[C@@H]4C[C@@H](O[C@@H]5O[C@@H](C)[C@H](OC)[C@@H](OC)[C@H]5OC)C[C@@H]34)[C@@H]2CC(=O)O1 [21-desethyl-21-n-propyl spinosyn A]	active	–	–
CO[C@@H]1[C@@H](OC)[C@H](C)O[C@@H](O[C@H]2C[C@H]3[C@@H]4C=C5C(=O)[C@H](C)[C@@H](O[C@H]6CC[C@H](N(C)C)[C@@H](C)O6)CCC[C@@H](C6CC6)OC(=O)C[C@H]5[C@@H]4C=C[C@@H]3C2)[C@@H]1OC [Compound 1, 21-desethyl-21-cyclopropyl spinosyn A]	–	33%	100%
CO[C@@H]1[C@@H](OC)[C@H](C)O[C@@H](O[C@H]2C[C@H]3[C@@H]4C=C5C(=O)[C@H](C)[C@@H](O[C@H]6CC[C@H](N(C)C)[C@@H](C)O6)CCC[C@@H](C6CCC6)OC(=O)C[C@H]5[C@@H]4C=C[C@@H]3C2)[C@@H]1OC [Compound 3, 21-desethyl-21-cyclobutyl spinosyn A]	–	83%	83%
CO[C@@H]1[C@@H](OC)[C@H](C)O[C@@H](O[C@H]2C[C@H]3[C@@H]4C=C5C(=O)[C@H](C)[C@@H](O[C@H]6CC[C@H](N(C)C)[C@@H](C)O6)CCC[C@H](C6CCC6)OC(=O)C[C@H]5[C@@H]4C=C(C)[C@@H]3C2)[C@@H]1OC [Compound 4, 21-desethyl-21-cyclobutyl spinosyn D]	–	83%	100%
CO[C@@H]1[C@@H](OC)[C@H](C)O[C@@H](O[C@@H]2C[C@H]3CC[C@@H]4[C@@H](C=C5C(=O)[C@H](C)[C@@H](O[C@H]6CC[C@H](N(C)C)[C@@H](C)O6)CCC[C@H](C6CCC6)OC(=O)C[C@H]54)[C@@H]3C2)[C@@H]1OC [Compound 8, 5,6-dihydro-21-desethyl-21-cyclobutyl spinosyn A]	–	83%	100%
CO[C@@H]1[C@@H](OC)[C@H](C)O[C@@H](O[C@H]2C[C@H]3[C@@H]4C=C5C(=O)[C@H](C)[C@@H](O[C@H]6CC[C@H](N(C)C)[C@@H](C)O6)CCC[C@H](C(C)C)OC(=O)C[C@H]5[C@@H]4C=C[C@@H]3C2)[C@@H]1OC [Compound 9, 21-desethyl-21-isopropyl spinosyn A]	active	100%	100%
CCC[C@H]1CCC[C@H](O[C@H]2CC[C@H](N(C)C)[C@@H](C)O2)[C@@H](C)C(=O)C2=C[C@@H]3[C@@H](C=C[C@@H]4C[C@@H](O[C@@H]5O[C@@H](C)[C@H](OC)[C@@H](OC)[C@H]5OC)C[C@@H]34)[C@@H]2CC(=O)O1 [Compound 23, 21-desethyl-21-n-propyl spinosyn A]	–	100%	100%
